Values of other authors, collected in publication PMC5745029 (Bioconjugate chemistry, 2010).

Target: T1, human apical sodium dependent bile acid transporter (ASBT) (Homo sapiens, UniProt Q12908)
T1 sequence (Q12908 1-348): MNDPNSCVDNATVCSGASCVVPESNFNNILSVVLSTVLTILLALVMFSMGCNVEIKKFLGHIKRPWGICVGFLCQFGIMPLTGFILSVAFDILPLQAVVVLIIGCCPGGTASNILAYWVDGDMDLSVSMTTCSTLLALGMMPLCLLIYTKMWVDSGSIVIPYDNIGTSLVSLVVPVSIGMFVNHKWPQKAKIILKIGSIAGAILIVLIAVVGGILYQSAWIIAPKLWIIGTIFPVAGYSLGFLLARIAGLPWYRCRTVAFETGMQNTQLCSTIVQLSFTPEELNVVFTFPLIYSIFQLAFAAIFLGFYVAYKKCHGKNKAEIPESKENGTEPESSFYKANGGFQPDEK
Conditions: ASBT-MDCK monolayer

For C[C@H](CCC(=O)O)[C@H]1CC[C@H]2[C@@H]3[C@H](O)C[C@@H]4C[C@H](O)CC[C@]4(C)[C@H]3CC[C@]12C [CDCA, chenodeoxycholate], the “ASBT inhibition among native bile acids” value is listed as “most potent inhibitor among native bile acids”.
